Assay results from publication PMC9038204, “SNX27–Retromer directly binds ESCPE-1 to transfer cargo proteins during endosomal recycling” (PLoS Biology, 2022).
Blank lines part the entries; values can stand above or below the substance they belong to. Where no end group is shown, it is not given here.

What was measured:
[1] = system: HeLa cells, surface GLUT1; assay: Surface biotinylation, cell surface level of GLUT1; assay type: cell-based
Method: (§1) For western blotting, cells were lysed in PBS with 1% (v/v) Triton X-100 and protease inhibitor cocktail. The protein concentration was determined with a BCA assay kit (Thermo Fisher Scientific, USA), and equal amounts were resolved on NuPAGE 4% to 12% precast gels (Invitrogen, USA). Blotting was performed onto polyvinylidene fluoride membranes (Immobilon-FL; EMD Millipore, USA) followed by detection using the Odyssey infrared scanning system (LI-COR Biosciences, USA). For GFP-based immunoprecipitations, HEK-293T cells were lysed 48 hours after transfection in immunoprecipitation buffer (50 mM Tris-HCl, 0.5% (v/v) NP-40, and Roche protease inhibitor cocktail) and subjected to GFP trap (ChromoTek, Germany). Immunoblotting was performed using standard procedures. Detection was performed on an Odyssey infrared scanning system (LI-COR Biosciences) using fluorescently labeled secondary antibodies. In using the Odyssey, we routinely performed western blot analysis where a single blot is simultaneously probed with antibodies against 2 proteins of interest (distinct antibody species) followed by visualization with the corresponding secondary antibodies conjugated to distinct spectral dyes.
(§2) For surface biotinylation experiments, fresh Sulfo-NHS-SS Biotin (Thermo Fisher Scientific, #21217) was dissolved in ice-cold PBS at pH 7.8 at a final concentration of 0.2 mg/ml. Cells were washed twice in ice-cold PBS and placed on ice to slow down the endocytic pathway. Next, cells were incubated with the biotinylation reagent for 30 minutes at 4°C followed by incubation in TBS for 10 minutes to quench the unbound biotin. The cells were then lysed in lysis buffer and subjected to Streptavidin beads-based affinity isolation (GE Healthcare, USA).

[2] = system: HeLa cells, surface ITGA5; assay: Surface biotinylation, cell surface level of ITGA5; assay type: cell-based
Method: as §1, §2

hSNX27FL K495D = molecular target: T1, hSNX27FL K495D (Homo sapiens, UniProt Q96L92, K495D); assay: ITC, hSNX1 peptide 75-92 against hSNX27FL K495D; assay type: binding; conditions: 25°C, 600 μM SNX1_75-92 into 20 μM hSNX27FL K495D
T1 construct: FL, full-length; ITC, isothermal titration calorimetry; His-tag followed by a TEV cleavage site (N); made in house; host or cells: E. coli BL21 (DE3)
Source text: (§3) For bacterial expression, full-length mouse SNX1 with an amino-terminal His-tag (mSNX1FL hereafter) was cloned into the pMW172Kan vector [75], and the truncated mSNX1 construct containing residues 1 to 139 was cloned into pGEX4T-2 vector for expression as a thrombin-cleavable amino-terminal GST fusion protein. DNA encoding full-length mouse SNX27 (mSNX27FL hereafter) was inserted into the pMCSG7 vector [76] by the ligation-independent cloning (LIC) approach. Human SNX27 constructs, hSNX27FL, hSNX27FERM, and hSNX27FL single-site mutants R437D, K495D, K496D, R498D, and K501D were cloned into the pET-28a vector by GenScript and codon optimized for bacterial protein expression. An additional TEV cleavage site was inserted between the amino-terminal His-tag and hSNX27 coding sequences.
(§4) All microcalorimetry experiments were conducted at 25°C using a PEAQ ITC (Malvern, UK) in 50 mM HEPES (pH 7.5), 200 mM NaCl, 5% glycerol, and 1 mM β-ME (ITC buffer). […]
(§5) The ITC experiments were conducted with 1 injection of 0.4 μL followed by a series of 12 injections of 3.2 μL each with 180-second intervals and a stirring speed of 850 rpm. […] Data were analyzed with Malvern software package by fitting and normalized data to a single-site binding model, yielding the thermodynamic parameters Kd, ΔH, ΔG, and −TΔS for all binding experiments. […]

hSNX27FL R498D = molecular target: T2, hSNX27FL R498D (Homo sapiens, UniProt Q96L92, R498D); assay: ITC, hSNX1 peptide 75-92 against hSNX27FL R498D; assay type: binding; conditions: 25°C, 600 μM SNX1_75-92 into 20 μM hSNX27FL R498D
T2 construct: FL, full-length; ITC, isothermal titration calorimetry; His-tag followed by a TEV cleavage site (N); made in house; host or cells: E. coli BL21 (DE3)
Source text: as §3, §4, §5

hSNX27FL K501D = molecular target: T3, hSNX27FL K501D (Homo sapiens, UniProt Q96L92, K501D); assay: ITC, hSNX1 peptide 75-92 against hSNX27FL K501D; assay type: binding; conditions: 25°C, 600 μM SNX1_75-92 into 20 μM hSNX27FL K501D
T3 construct: FL, full-length; ITC, isothermal titration calorimetry; His-tag followed by a TEV cleavage site (N); made in house; host or cells: E. coli BL21 (DE3)
Source text: as §3, §4, §5

[3] = molecular target: T4, mSNX27FL preincubated with competing peptide (Mus musculus, UniProt Q3UHD6); assay: Competitive ITC of hSNX2 16-33 and hSNX1 75-92 with mSNX27FL; assay type: binding; conditions: 25°C
T4 construct: DNA encoding full-length mouse SNX27 (mSNX27FL hereafter) was inserted into the pMCSG7 vector; made in house; host or cells: Escherichia coli BL21 CodonPlus (DE3)
Method: All microcalorimetry experiments were conducted at 25°C using a PEAQ ITC (Malvern, UK) in 50 mM HEPES (pH 7.5), 200 mM NaCl, 5% glycerol, and 1 mM β-ME (ITC buffer). All proteins were purified by SEC using the same buffer prior to ITC experiments to avoid buffer mismatches. To measure binding of SNX27 to SNX1 proteins, 800 μM of hSNX27FERM was titrated into 20 μM of GST-mSNX1_1-139 or His-SNX1FL. For the binding of SNX1 and SNX2 peptides to SNX27, peptides were diluted 10-fold to 800 μM in ITC buffer peptides and titrated into 20 μM SNX27FL proteins containing the same 1:10 ratio of peptide buffer (100 mM Tris-HCl, pH 10.6). […] For ITC experiment using SNX1_75-92 against hSNX27 wild-type and single-site mutants, 600 μM SNX1_75-92 peptide was titrated into 20 μM hSNX27 proteins.
The ITC experiments were conducted with 1 injection of 0.4 μL followed by a series of 12 injections of 3.2 μL each with 180-second intervals and a stirring speed of 850 rpm. The heat exchange of interactions was obtained through integrating the observed peaks and background correction by subtracting the heats of dilution. Data were analyzed with Malvern software package by fitting and normalized data to a single-site binding model, yielding the thermodynamic parameters Kd, ΔH, ΔG, and −TΔS for all binding experiments. […]

[4] = relative to HeLa = 100, mean of n = 3, Fig. 6D
[5] = relative to HeLa = 100, replicate n1, Fig. 6D
[6] = relative to HeLa = 100, replicate n2, Fig. 6D
[7] = relative to HeLa = 100, replicate n3, Fig. 6D

Substance: +GFP-SNX1
cell surface GLUT1, Mean 2 [1, 4]: 89.92 | cell surface GLUT1 [1, 5]: 81.0353 | cell surface GLUT1 [1, 6]: 95.6847 | cell surface GLUT1 [1, 7]: 93.0328 | cell surface ITGa5, Mean 2 [2, 4]: 94.91 | cell surface ITGa5 [2, 5]: 92.6175 | cell surface ITGa5 [2, 6]: 101.027 | cell surface ITGa5 [2, 7]: 91.0806

Kd (hSNX27FL K495D): no detectable binding | Kd (hSNX27FL K495D; listed as hSNX175-92): No binding detected | Kd (hSNX27FL R498D): no detectable binding | Kd (hSNX27FL R498D; listed as hSNX175-92): No binding detected | Kd (hSNX27FL K501D): no detectable binding | Kd (hSNX27FL K501D; listed as hSNX175-92): No binding detected
Substance: NGIHEEQDQEPQDLFADA [SNX1_75-92]

Kd ([3]; hSNX2 16-33 titrated into mSNX27FL preincubated with 2-fold molar excess hSNX1 75-92): binding is blocked | Kd ([3]; hSNX2 16-33 titrated into mSNX27FL preincubated with 2-fold molar excess hSNX1 75-92, listed as hSNX216-33): No binding detected
Substance: TDFEDLEDGEDLFTSTVS [SNX2_16-33]
